Source: paper PMC7265341, “Quantifying CDK inhibitor selectivity in live cells” (Nature Communications, 2020)
Read-outs that look alike come from different tables or passages of the source.

Assays:
CDK16/Cyclin Y = CDK16/Cyclin Y (Homo sapiens, UniProt Q00536); assay: NanoBRET live-cell target engagement, CDK16-NanoLuc/Cyclin Y in HEK-293; format: binding; settings: 10µM, read-out: CDK16/Y Inhibition at 10µM (%)
CDK9/Cyclin K = CDK9/Cyclin K (Homo sapiens, UniProt P50750); assay: NanoBRET live-cell target engagement, NanoLuc-CDK9/Cyclin K in HEK-293; format: binding; settings: 10µM, read-out: CDK9/K Inhibition at 10µM (%)
CDK14/Cyclin Y = CDK14/Cyclin Y (Homo sapiens, UniProt O94921); assay: NanoBRET live-cell target engagement, CDK14-NanoLuc/Cyclin Y in HEK-293; format: binding; settings: 10µM, read-out: CDK14/Y Inhibition at 10µM (%)
CDK11B/Cyclin L2 = CDK11B/Cyclin L2 (Homo sapiens, UniProt P21127); assay: NanoBRET live-cell target engagement, CDK11B-NanoLuc/Cyclin L2 in HEK-293; format: binding; settings: 10µM, read-out: CDK11b/L2 Inhibition at 10µM (%)
CDK8/Cyclin C = CDK8/Cyclin C (Homo sapiens, UniProt P49336); assay: NanoBRET live-cell target engagement, NanoLuc-CDK8/Cyclin C in HEK-293; format: binding; settings: 10µM, read-out: CDK8/C Inhibition at 10µM (%)
CDK13/Cyclin K = CDK13/Cyclin K (Homo sapiens, UniProt Q14004); assay: NanoBRET live-cell target engagement, CDK13-NanoLuc/Cyclin K in HEK-293; format: binding; settings: 10µM, read-out: CDK13/K Inhibition at 10µM (%)
CDK17/Cyclin Y = CDK17/Cyclin Y (Homo sapiens, UniProt Q00537); assay: NanoBRET live-cell target engagement, CDK17-NanoLuc/Cyclin Y in HEK-293; format: binding; settings: 10µM, read-out: CDK17/Y Inhibition at 10µM (%)
CDK10/Cyclin L2 = CDK10/Cyclin L2 (Homo sapiens, UniProt Q15131); assay: NanoBRET live-cell target engagement, CDK10-NanoLuc/Cyclin L2 in HEK-293; settings: read-out: CDK10/L2 Inhibition at 10µM (%), 10µM
CDK7 = CDK7 (Homo sapiens, UniProt P50613); assay: NanoBRET live-cell target engagement, NanoLuc-CDK7 in HEK-293; format: binding; settings: for inhibition at 10 µM: read-out: CDK7 Inhibition at 10µM (%)
CDK3/Cyclin E1 = CDK3/Cyclin E1 (Homo sapiens, UniProt Q00526); assay: NanoBRET live-cell target engagement, CDK3-NanoLuc/Cyclin E1 in HEK-293; format: binding; settings: for inhibition at 10 µM: read-out: CDK3/E1 Inhibition at 10µM (%); for IC50: read-out: CDK3/E1 IC50
CDK20/Cyclin H = CDK20/Cyclin H (Homo sapiens, UniProt Q8IZL9); assay: NanoBRET live-cell target engagement, NanoLuc-CDK20/Cyclin H in HEK-293; format: binding; settings: 10µM, read-out: CDK20/H Inhibition at 10µM (%)
CDK4/Cyclin D1 = CDK4/Cyclin D1 (Homo sapiens, UniProt P11802); assay: NanoBRET live-cell target engagement, NanoLuc-CDK4/Cyclin D1 in HEK-293; format: binding; settings: for inhibition at 10 µM: read-out: CDK4/D1 Inhibition at 10µM (%); for IC50: read-out: CDK4/D1 IC50
CDK1/Cyclin E1 = CDK1/Cyclin E1 (Homo sapiens, UniProt P06493); assay: NanoBRET live-cell target engagement, CDK1-NanoLuc/Cyclin E1 in HEK-293; format: binding; settings: for inhibition at 10 µM: read-out: CDK1/E1 Inhibition at 10µM (%); for IC50: read-out: CDK1/E1 IC50
CDK11A/Cyclin L2 = target: T1, CDK11A/Cyclin L2 (Homo sapiens, UniProt Q9UQ88); assay: NanoBRET live-cell target engagement, CDK11A-NanoLuc/Cyclin L2 in HEK-293; format: binding; settings: 10µM, read-out: CDK11a/L2 Inhibition at 10µM (%)
T1 sequence (Q9UQ88 1-783): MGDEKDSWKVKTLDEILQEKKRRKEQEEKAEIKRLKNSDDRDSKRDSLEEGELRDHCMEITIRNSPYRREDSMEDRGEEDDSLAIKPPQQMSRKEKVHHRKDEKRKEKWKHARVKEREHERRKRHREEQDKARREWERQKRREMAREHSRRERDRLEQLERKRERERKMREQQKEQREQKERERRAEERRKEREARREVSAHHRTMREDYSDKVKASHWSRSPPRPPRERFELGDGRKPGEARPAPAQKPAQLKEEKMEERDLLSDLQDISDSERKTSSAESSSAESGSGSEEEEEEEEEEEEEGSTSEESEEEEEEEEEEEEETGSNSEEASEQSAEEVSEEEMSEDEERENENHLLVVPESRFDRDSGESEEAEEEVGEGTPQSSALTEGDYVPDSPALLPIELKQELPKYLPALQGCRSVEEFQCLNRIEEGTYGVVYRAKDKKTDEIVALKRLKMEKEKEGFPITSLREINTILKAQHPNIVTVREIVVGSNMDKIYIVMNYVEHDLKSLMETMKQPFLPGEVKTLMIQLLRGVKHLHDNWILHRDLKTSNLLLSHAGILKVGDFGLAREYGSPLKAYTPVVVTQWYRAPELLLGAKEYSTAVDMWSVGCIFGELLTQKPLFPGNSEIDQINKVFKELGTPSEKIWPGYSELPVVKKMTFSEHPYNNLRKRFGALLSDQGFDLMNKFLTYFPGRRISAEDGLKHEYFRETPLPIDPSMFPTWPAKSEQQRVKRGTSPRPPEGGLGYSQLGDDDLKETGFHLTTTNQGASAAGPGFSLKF

CDK5/CDK5R1 = CDK5/CDK5R1 (Homo sapiens, UniProt Q00535); assay: NanoBRET live-cell target engagement, CDK5-NanoLuc/CDK5R1 in HEK-293; format: binding; settings: for inhibition at 10 µM: read-out: CDK5/CDK5R1 Inhibition at 10µM (%); for IC50: read-out: CDK5/CDK5R1 IC50
CDK2/Cyclin E1 = CDK2/Cyclin E1 (Homo sapiens, UniProt P24941); assay: NanoBRET live-cell target engagement, CDK2-NanoLuc/Cyclin E1 in HEK-293; format: binding; settings: 10µM, read-out: CDK2/E1 Inhibition at 10µM (%)
CDK12/Cyclin K = CDK12/Cyclin K (Homo sapiens, UniProt Q9NYV4); assay: NanoBRET live-cell target engagement, CDK12-NanoLuc/Cyclin K in HEK-293; format: binding; settings: 10µM, read-out: CDK12/K Inhibition at 10µM (%)
CDK15/Cyclin Y = CDK15/Cyclin Y (Homo sapiens, UniProt Q96Q40); assay: NanoBRET live-cell target engagement, NanoLuc-CDK15/Cyclin Y in HEK-293; format: binding; settings: 10µM, read-out: CDK15/Y Inhibition at 10µM (%)
CDK19/Cyclin C = CDK19/Cyclin C (Homo sapiens, UniProt Q9BWU1); assay: NanoBRET live-cell target engagement, NanoLuc-CDK19/Cyclin C in HEK-293; settings: read-out: CDK19/C Inhibition at 10µM (%), 10µM

Chain of CDK14/Cyclin Y (O94921 whole entry): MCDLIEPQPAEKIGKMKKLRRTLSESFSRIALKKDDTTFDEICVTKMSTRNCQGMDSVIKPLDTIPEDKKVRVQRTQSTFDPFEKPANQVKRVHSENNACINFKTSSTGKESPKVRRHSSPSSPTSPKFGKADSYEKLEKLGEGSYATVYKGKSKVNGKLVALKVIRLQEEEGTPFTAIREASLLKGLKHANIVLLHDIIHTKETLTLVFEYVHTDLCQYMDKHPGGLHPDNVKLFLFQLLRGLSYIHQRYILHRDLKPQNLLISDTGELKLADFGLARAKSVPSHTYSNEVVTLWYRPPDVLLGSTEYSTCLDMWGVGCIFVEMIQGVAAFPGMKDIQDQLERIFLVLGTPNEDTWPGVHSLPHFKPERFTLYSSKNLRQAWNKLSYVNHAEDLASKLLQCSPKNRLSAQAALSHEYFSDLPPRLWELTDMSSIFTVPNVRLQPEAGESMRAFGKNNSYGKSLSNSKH
Chain of CDK14/Cyclin Y (Q8ND76 whole entry partner): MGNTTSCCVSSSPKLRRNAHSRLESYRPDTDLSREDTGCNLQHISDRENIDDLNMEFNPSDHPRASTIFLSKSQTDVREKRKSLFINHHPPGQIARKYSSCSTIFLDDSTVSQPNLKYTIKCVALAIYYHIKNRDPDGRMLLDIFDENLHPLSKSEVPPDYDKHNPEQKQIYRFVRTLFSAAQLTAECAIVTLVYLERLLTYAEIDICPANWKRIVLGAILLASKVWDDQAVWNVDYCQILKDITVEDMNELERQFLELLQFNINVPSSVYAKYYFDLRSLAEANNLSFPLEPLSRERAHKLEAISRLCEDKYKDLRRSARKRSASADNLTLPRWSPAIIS
Chain of CDK13/Cyclin K (O75909 whole entry): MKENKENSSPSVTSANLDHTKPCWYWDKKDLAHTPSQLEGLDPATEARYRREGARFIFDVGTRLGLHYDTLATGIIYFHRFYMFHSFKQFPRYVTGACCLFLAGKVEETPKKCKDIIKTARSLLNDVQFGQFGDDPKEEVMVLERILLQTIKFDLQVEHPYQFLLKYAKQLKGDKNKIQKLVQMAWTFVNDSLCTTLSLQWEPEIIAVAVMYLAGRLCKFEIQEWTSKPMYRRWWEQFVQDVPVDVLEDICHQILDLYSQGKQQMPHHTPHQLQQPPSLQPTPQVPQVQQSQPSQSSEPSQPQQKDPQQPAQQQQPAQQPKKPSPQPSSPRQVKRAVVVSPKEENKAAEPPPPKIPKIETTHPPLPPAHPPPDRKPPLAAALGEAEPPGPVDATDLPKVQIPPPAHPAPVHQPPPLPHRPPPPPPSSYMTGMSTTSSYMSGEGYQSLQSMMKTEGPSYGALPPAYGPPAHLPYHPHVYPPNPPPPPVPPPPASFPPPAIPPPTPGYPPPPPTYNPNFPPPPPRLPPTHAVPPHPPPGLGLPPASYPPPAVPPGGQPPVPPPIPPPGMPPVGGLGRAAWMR
Chain of CDK13/Cyclin K (Q14004 other isoform, or with tags, fused parts or gaps): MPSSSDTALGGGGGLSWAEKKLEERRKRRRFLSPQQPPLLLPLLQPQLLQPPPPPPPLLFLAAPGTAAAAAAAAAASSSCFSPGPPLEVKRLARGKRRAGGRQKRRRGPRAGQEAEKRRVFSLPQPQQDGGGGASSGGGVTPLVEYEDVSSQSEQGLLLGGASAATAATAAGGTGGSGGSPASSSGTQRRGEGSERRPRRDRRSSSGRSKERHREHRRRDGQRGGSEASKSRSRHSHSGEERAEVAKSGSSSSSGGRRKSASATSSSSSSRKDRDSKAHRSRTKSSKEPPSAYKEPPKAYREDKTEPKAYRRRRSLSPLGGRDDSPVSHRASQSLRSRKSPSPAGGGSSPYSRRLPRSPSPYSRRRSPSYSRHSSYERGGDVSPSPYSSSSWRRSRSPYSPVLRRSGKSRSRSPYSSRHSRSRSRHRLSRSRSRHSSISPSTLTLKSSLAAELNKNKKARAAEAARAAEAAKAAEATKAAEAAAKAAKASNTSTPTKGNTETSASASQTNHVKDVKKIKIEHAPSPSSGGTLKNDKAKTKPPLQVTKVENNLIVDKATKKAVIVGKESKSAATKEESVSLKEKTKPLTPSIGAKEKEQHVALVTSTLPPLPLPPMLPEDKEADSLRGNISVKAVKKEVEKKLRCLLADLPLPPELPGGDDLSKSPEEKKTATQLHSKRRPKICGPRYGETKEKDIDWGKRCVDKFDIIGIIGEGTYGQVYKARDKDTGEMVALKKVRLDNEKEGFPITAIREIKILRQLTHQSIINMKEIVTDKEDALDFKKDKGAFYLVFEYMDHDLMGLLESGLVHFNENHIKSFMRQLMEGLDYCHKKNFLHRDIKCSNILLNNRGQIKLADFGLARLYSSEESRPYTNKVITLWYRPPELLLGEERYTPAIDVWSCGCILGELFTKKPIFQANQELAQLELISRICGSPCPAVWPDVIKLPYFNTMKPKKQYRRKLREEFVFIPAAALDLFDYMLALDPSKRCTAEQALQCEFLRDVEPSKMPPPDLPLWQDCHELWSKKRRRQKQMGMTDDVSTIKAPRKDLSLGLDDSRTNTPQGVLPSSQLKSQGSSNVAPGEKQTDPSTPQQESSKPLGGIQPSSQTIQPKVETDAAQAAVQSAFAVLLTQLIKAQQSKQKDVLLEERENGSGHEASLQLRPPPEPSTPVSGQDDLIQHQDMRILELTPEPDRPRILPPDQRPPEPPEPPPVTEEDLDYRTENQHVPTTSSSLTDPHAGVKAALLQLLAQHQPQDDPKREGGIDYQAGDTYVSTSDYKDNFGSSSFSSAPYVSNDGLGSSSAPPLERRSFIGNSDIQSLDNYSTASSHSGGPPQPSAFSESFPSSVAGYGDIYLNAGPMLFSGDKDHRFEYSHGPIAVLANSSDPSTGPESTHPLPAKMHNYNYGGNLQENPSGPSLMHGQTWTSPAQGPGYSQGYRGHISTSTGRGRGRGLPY
Chain of CDK5/CDK5R1 (Q00535 whole entry): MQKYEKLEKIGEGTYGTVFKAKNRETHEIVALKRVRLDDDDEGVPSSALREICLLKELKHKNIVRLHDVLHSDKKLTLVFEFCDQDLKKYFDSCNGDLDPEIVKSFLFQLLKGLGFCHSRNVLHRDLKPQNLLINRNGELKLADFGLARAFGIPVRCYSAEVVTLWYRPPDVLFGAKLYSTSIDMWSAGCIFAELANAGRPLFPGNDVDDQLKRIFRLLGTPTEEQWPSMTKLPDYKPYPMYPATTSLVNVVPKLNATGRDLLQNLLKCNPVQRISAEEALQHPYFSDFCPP
Chain of CDK5/CDK5R1 (Q15078 whole entry partner): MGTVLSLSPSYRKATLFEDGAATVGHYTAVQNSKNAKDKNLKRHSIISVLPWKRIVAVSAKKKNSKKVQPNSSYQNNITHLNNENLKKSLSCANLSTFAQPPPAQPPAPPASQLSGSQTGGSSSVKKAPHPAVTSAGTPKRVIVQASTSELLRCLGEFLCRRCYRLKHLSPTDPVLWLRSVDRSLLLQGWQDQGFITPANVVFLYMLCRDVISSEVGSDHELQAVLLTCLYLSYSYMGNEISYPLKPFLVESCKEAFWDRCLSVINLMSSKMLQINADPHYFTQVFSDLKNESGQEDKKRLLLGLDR
Chain of CDK12/Cyclin K (Q9NYV4 1-1481 isoform Q9NYV4-2): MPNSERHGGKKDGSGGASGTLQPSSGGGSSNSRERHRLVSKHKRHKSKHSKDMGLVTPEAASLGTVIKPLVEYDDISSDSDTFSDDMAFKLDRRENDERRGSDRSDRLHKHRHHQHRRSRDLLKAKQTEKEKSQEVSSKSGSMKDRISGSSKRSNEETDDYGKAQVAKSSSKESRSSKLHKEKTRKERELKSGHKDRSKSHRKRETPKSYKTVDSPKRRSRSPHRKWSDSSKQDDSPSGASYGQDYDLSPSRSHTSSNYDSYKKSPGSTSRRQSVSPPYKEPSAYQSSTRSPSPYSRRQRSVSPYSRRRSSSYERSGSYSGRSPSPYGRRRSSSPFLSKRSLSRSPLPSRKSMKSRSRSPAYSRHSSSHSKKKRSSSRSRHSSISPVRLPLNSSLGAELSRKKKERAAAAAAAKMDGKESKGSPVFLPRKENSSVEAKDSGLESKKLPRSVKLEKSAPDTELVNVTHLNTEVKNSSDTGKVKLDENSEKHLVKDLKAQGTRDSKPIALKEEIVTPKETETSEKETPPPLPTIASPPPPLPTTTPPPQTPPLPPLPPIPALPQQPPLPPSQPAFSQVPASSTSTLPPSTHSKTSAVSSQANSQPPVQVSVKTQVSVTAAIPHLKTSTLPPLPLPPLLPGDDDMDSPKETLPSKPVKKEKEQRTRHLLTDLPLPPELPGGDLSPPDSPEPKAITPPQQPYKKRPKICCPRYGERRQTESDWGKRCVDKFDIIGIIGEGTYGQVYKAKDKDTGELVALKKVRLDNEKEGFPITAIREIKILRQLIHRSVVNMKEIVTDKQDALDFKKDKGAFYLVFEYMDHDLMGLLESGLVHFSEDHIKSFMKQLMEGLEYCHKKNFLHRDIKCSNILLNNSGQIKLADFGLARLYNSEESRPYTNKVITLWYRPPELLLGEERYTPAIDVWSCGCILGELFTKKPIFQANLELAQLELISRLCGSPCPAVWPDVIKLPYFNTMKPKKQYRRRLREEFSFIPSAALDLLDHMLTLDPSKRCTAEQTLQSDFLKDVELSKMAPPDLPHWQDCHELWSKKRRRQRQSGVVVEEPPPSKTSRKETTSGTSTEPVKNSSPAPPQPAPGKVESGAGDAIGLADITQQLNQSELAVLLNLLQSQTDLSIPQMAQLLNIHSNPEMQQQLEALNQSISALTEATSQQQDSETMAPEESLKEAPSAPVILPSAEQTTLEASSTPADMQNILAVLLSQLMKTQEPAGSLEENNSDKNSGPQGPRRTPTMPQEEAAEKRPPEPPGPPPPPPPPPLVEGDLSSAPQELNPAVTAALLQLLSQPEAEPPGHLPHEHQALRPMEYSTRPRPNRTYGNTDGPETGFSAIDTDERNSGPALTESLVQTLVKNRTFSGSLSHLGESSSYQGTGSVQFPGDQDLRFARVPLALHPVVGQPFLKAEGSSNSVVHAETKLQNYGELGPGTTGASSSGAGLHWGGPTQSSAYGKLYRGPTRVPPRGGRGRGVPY
Chain of CDK12/Cyclin K (O75909 whole entry partner): as the sequence (O75909 whole entry) above

SMILES: CC(C)CC(=O)Nc1[nH]nc2c1CN(C(=O)C1CCN(C)CC1)C2(C)C [PHA-793887]
- inhibition at 10 µM (CDK16/Cyclin Y; independent experiment 1): 84.5%
- inhibition at 10 µM (CDK16/Cyclin Y; independent experiment 2): 87%
- inhibition at 10 µM (CDK9/Cyclin K; average of experiments): 86%
- inhibition at 10 µM (CDK9/Cyclin K; independent experiment 1): 87.8%
- inhibition at 10 µM (CDK9/Cyclin K; independent experiment 2): 84.1%
- inhibition at 10 µM (CDK14/Cyclin Y; average of experiments): 81.4%
- inhibition at 10 µM (CDK14/Cyclin Y; independent experiment 1): 81%
- inhibition at 10 µM (CDK14/Cyclin Y; independent experiment 2): 81.8%
- inhibition at 10 µM (CDK11B/Cyclin L2; average of experiments): 56.3%
- inhibition at 10 µM (CDK11B/Cyclin L2; independent experiment 1): 57.8%
- inhibition at 10 µM (CDK11B/Cyclin L2; independent experiment 2): 54.7%
- inhibition at 10 µM (CDK8/Cyclin C; average of experiments): 57.2%
- inhibition at 10 µM (CDK8/Cyclin C; independent experiment 1): 65.2%
- inhibition at 10 µM (CDK8/Cyclin C; independent experiment 2): 49.1%
- inhibition at 10 µM (CDK13/Cyclin K; average of experiments): 17.1%
- inhibition at 10 µM (CDK13/Cyclin K; independent experiment 1): 23.7%
- inhibition at 10 µM (CDK13/Cyclin K; independent experiment 2): 10.4%
- inhibition at 10 µM (CDK17/Cyclin Y; average of experiments): 86.9%
- inhibition at 10 µM (CDK17/Cyclin Y; independent experiment 1): 86.4%
- inhibition at 10 µM (CDK17/Cyclin Y; independent experiment 2): 87.4%
- inhibition at 10 µM (CDK10/Cyclin L2; average of experiments): 30%
- inhibition at 10 µM (CDK10/Cyclin L2; independent experiment 1): 32.9%
- inhibition at 10 µM (CDK10/Cyclin L2; independent experiment 2): 27.2%
- inhibition at 10 µM (CDK7; average of experiments): 94.1%
- inhibition at 10 µM (CDK7; independent experiment 1): 95.3%
- inhibition at 10 µM (CDK7; independent experiment 2): 92.8%
- IC50 (CDK7; average (± SEM where n=3), read-out: CDK7 IC50): 240 nM
- IC50 (CDK7; independent experiment 1, read-out: CDK7 IC50): 240 nM
- IC50 (CDK7; independent experiment 2, read-out: CDK7 IC50): 230 nM
- IC50 (CDK7; live HEK-293, 2 h, mean ± S.E.M. (n=3) or mean (n=2), read-out: IC50 for CDK/cyclin complexes, CDK7): 240 nM
- inhibition at 10 µM (CDK3/Cyclin E1; average of experiments): 93.2%
- inhibition at 10 µM (CDK3/Cyclin E1; independent experiment 1): 93.4%
- inhibition at 10 µM (CDK3/Cyclin E1; independent experiment 2): 93%
- IC50 (CDK3/Cyclin E1; average (± SEM where n=3)): 280 nM
- IC50 (CDK3/Cyclin E1; independent experiment 1): 165 nM
- IC50 (CDK3/Cyclin E1; independent experiment 2): 394 nM
- inhibition at 10 µM (CDK20/Cyclin H; independent experiment 1): 5.8%
- inhibition at 10 µM (CDK20/Cyclin H; independent experiment 2): 16.7%
- inhibition at 10 µM (CDK4/Cyclin D1; average of experiments): 83.1%
- inhibition at 10 µM (CDK4/Cyclin D1; independent experiment 1): 82.5%
- inhibition at 10 µM (CDK4/Cyclin D1; independent experiment 2): 83.8%
- IC50 (CDK4/Cyclin D1; average (± SEM where n=3)): 320 nM
- IC50 (CDK4/Cyclin D1; independent experiment 1): 122 nM
- IC50 (CDK4/Cyclin D1; independent experiment 2): 510 nM
- inhibition at 10 µM (CDK1/Cyclin E1; average of experiments): 71.4%
- inhibition at 10 µM (CDK1/Cyclin E1; independent experiment 1): 72%
- inhibition at 10 µM (CDK1/Cyclin E1; independent experiment 2): 70.8%
- IC50 (CDK1/Cyclin E1; average (± SEM where n=3)): 820 nM
- IC50 (CDK1/Cyclin E1; independent experiment 1): 800 nM
- IC50 (CDK1/Cyclin E1; independent experiment 2): 850 nM
- inhibition at 10 µM (CDK11A/Cyclin L2; average of experiments): 50.1%
- inhibition at 10 µM (CDK11A/Cyclin L2; independent experiment 1): 50.7%
- inhibition at 10 µM (CDK11A/Cyclin L2; independent experiment 2): 49.4%
- inhibition at 10 µM (CDK5/CDK5R1; average of experiments): 92%
- inhibition at 10 µM (CDK5/CDK5R1; independent experiment 1): 89.9%
- inhibition at 10 µM (CDK5/CDK5R1; independent experiment 2): 94.2%
- IC50 (CDK5/CDK5R1; average (± SEM where n=3)): 360 nM
- IC50 (CDK5/CDK5R1; independent experiment 1): 422 nM
- IC50 (CDK5/CDK5R1; independent experiment 2): 300 nM
- inhibition at 10 µM (CDK2/Cyclin E1; average of experiments): 96%
- inhibition at 10 µM (CDK2/Cyclin E1; independent experiment 1): 95.7%
- inhibition at 10 µM (CDK2/Cyclin E1; independent experiment 2): 96.3%
- inhibition at 10 µM (CDK12/Cyclin K; average of experiments): 31.4%
- inhibition at 10 µM (CDK12/Cyclin K; independent experiment 1): 33%
- inhibition at 10 µM (CDK12/Cyclin K; independent experiment 2): 29.9%
- inhibition at 10 µM (CDK15/Cyclin Y; average of experiments): 72.5%
- inhibition at 10 µM (CDK15/Cyclin Y; independent experiment 1): 72.6%
- inhibition at 10 µM (CDK15/Cyclin Y; independent experiment 2): 72.5%
- inhibition at 10 µM (CDK19/Cyclin C; average of experiments): 52.6%
- inhibition at 10 µM (CDK19/Cyclin C; independent experiment 1): 63.4%
- inhibition at 10 µM (CDK19/Cyclin C; independent experiment 2): 41.9%
